In ChEMBL document CHEMBL1201862, “PubChem BioAssay data set” (2004):
Calls of active or inactive are those of the source.

Assays:
[1] = target: G-protein coupled receptor 183 (Homo sapiens, UniProt P32249); test: SAR confirmation of small molecule antagonists of the EBI2 receptor via a luminescent beta-arrestin assa.; assay type: functional
[2] = target: NAD-dependent protein deacylase sirtuin-5, mitochondrial (Homo sapiens, UniProt Q9NXA8); test: sirtuin-5 deacylation blockers, concentration series – biochemical, fluorescence imaging, cherry-pick, set 5, dose response (AID 720591);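 note: desuccinylation of succinyl peptide AMC substrate read as fluorescence after trypsin release; potency of inhibitors that lower fluorescence and may act on trypsin instead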
NAD-dependent protein deacylase sirtuin-5, mitochondrial, sequence (Q9NXA8 whole entry): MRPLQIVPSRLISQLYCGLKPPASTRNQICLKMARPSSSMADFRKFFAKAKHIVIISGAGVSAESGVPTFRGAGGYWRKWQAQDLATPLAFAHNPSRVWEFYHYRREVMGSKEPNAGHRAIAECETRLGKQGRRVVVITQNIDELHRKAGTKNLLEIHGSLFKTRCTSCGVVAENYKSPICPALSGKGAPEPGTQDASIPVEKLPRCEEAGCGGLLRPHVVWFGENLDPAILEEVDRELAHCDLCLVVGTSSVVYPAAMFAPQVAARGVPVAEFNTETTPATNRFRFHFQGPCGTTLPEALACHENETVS

[3] = growth inhibition of PfATP4-mutant resistant parasites – NITD609-resistant line, SYBR Green, dry powder, dose response (AID 1159571); assay type: functional, cell-based;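 note: parasites synchronized at ring stage by sorbitol before testing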
[4] = growth inhibition of yeast DHODH-expressing 3D7 parasites – SYBR Green, dry powder samples, dose response (AID 1159570); assay type: functional, cell-based;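 note: parasite growth measured after 72 hours of compound exposure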
[5] = Dd2 malaria parasite growth inhibition potency – SYBR Green, dry powder samples, dose response (AID 1159566); assay type: functional, cell-based;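 note: potency for growth inhibition with lower SYBR green DNA signal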
[6] = toxicity to human HepG2 hepatoma cells – cell-based, plate reader, dry powder samples, cytotoxicity control, dose response (AID 1159569); assay type: functional;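 note: inhibitor potency with signal falling toward the positive control level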
[7] = Dd2 parasite growth inhibition in erythrocytes – SYBR Green, dry powder samples, set 9, dose response (AID 1159568); assay type: functional, cell-based
[8] = viability loss in THP-1 monocytes – THP-1 cells, cytotoxicity control for Vif-APOBEC3G degradation inhibitor project, dose response (AID 1117359); assay type: functional; conditions: THP-1
[9] = system: H4; test: Luminescence Cell-Based Dose Response HTS to Identify Activators of 5'UTR Stem-Loop Driven Prion Protein mRNA Translation in H4 Neuroglioblastoma Cells. [Related pubchem assays: 1829 (Project Summary), 1814 (Primary HTS)]; assay type: functional; conditions: Homo sapiens
[10] = Luminescence Cell-Based Dose Confirmation to Identify Activators of 5'UTR Stem-Loop Driven Alpha-Synuclein mRNA Translation in H4 Neuroglioblastoma Cells. [Related pubchem assays: 1829 (Project Summary), 1814 (Primary HTS)]; assay type: functional
[11] = Luminescence Cell-Based Dose Response to Identify Activators of Luciferase Translation or Activity in H4-C Neuroglioblastoma Cells. [Related pubchem assays: 1829 (Project Summary), 1814 (Primary HTS)]; assay type: functional
[12] = Luminescence Cell-Based Dose Response HTS to Identify Activators of Luciferase Translation or Activity in H4 […] Cells. [Related pubchem assays: 1829 (Project Summary), 1814 (Primary HTS)]; assay type: functional
[13] = Luminescence Cell-Based Dose Response to Identify Activators of 5'UTR Stem-Loop Driven Prion Protein mRNA Translation in H4-C Neuroglioblastoma Cells. [Related pubchem assays: 1829 (Project Summary), 1814 (Primary HTS)]; assay type: functional
[14] = RKO cell viability reduction, dose response, CellTiter-Glo luminescence (AID 1117322); assay type: functional
[15] = Reduced DLD-1 viability, concentration-response, CellTiter-Glo luminescence (AID 1117352); assay type: functional
[16] = CellTiter-Glo luminescence survival assay, SW480 colon tumor line, concentration-response curve, half-maximal inhibitory concentration (AID 1117338); assay type: functional
[17] = cytotoxicity toward HCT116 cells – cell-based, CellTiter-Glo luminescence, IC50, dose response (AID 1117332); assay type: functional; conditions: HCT-116
[18] = cytotoxicity toward HT-29 cells – cell-based, CellTiter-Glo luminescence, IC50, dose response (AID 1117330); assay type: functional
[19] = SNU-C1 cell viability reduction, dose response, CellTiter-Glo luminescence (AID 1117323); assay type: functional, cell-based
[20] = HCT116 cell viability decrease, GSK3B pretreatment – CellTiter-Glo, IC50, dose response (AID 1117339); assay type: functional; conditions: HCT-116
[21] = cytotoxicity toward Colo320 cells – cell-based, CellTiter-Glo luminescence, IC50, dose response (AID 1117334); assay type: functional; conditions: COLO 320

G-protein coupled receptor 183, sequence (P32249 whole entry): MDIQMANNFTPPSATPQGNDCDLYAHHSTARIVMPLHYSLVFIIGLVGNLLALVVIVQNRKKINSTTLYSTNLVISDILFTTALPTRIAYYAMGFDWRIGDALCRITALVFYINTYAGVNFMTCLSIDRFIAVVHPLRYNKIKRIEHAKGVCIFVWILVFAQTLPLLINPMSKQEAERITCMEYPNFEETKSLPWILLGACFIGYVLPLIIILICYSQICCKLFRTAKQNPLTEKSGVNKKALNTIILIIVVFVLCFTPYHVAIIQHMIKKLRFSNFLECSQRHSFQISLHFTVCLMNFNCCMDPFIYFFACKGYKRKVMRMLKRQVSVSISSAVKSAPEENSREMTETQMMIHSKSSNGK

With O=C(/C=C/c1ccc(Br)cc1)N1CCN(C(=O)c2ccccc2)CC1 the IC50 [1] was 0.62 nM (active).

For CC(C)N(C(=O)[C@H]1C[C@H](CC(=O)NCc2cccc(C(F)(F)F)c2)C(=O)N2CCc3c([nH]c4cc(CCC(=O)N(C)C)ccc34)[C@]12C)C(C)C, the AC50 [2] was > 30 µM (inactive).

In the case of COc1cccc(CN2[C@H](CO)[C@@H](c3ccccc3)C23CN(Cc2ccccc2OC)C3)c1, the AC50 [3] is reported as 875 nM (active), the AC50 [4] is reported as 999 nM (active) and the AC50 [5] is reported as 470 nM (active). For the same compound, the AC50 [6] was 23.9 µM (active) and the AC50 [7] was 1.31 µM (active).

With COc1ccc(-c2[nH]c3ccccc3c2SCCN)cc1 the CC50 [8] was 28.3 µM (active).

For Cc1ccc(CN2CCN(C(=O)/C=C/c3ccc(Br)cc3)CC2)cc1, the IC50 [1] was 1.77 nM (active).

In the case of Cc1ccc(-n2c(C)cc(/C=C3\SC(=O)NC3=O)c2C)cc1, the EC50 [9] is reported as 749 nM (active), the EC50 [10] is reported as 344 nM (active) and the EC50 [11] is reported as 401 nM (active). The EC50 [12] was < 100 nM (inconclusive) and the EC50 [13] was 512 nM (active).

In the case of CSc1ccc(/C=C2/C(C)=C(CC(=O)O)c3cc(F)ccc32)cc1 [SULINDAC SULFIDE], the IC50 [14] is reported as > 20 µM (inactive), the IC50 [15] is reported as > 20 µM (inactive) and the IC50 [16] is reported as 20 µM (inactive). For the same compound, the IC50 [17] was > 20 µM (inactive), the IC50 [18] was > 20 µM (inactive) and the IC50 [19] was 12 µM (inactive). For the same compound, the IC50 [20] was > 20 µM (inactive) and the IC50 [21] was > 20 µM (inactive).

In the case of COc1ccc(S(=O)(=O)N(C)C[C@H]2Oc3ccc(NC(=O)Cc4cn(C)c5ccccc45)cc3C(=O)N([C@H](C)CO)C[C@@H]2C)cc1, the AC50 [7] is reported as 0.39 µM (active).
